The values that follow come from patent publication US4780467A, “Esters of N-alkyl-nortropines and their quaternary derivatives having anti-bronchospastic activity, and pharmaceutical compositions containing them” (Laboratori Guidotti Spa, priority 1986, dated 1988).

Each structure is given as a SMILES string. Like-named read-outs stand apart in the source and are kept apart here. Some results are limits rather than exact numbers.

Series [1] has as its system bronchospasm induced by acetyl choline aerosol in guinea pig. The series can be described thus: inhibition of bronchospasm induced by acetyl choline aerosol in awake guinea pig. The class given is in vivo.
Series [2] has as its system PAF-acether induced bronchospasm in guinea pig. As to the kind of experiment: inhibition of PAF-acether induced bronchospasm in anestetized guinea pig. The class given is in vivo. Particulars: for inhibition % of PAF-acether induced bronchospasm: guinea pig, i.v.
In series [3] the test system is platelet aggregation (rabbit prp) from PAF acether. As to the kind of experiment: platelet aggregation (rabbit prp) from PAF-acether. In kind it is cell-based. Particulars: Oryctolagus cuniculus.
Series [4] has as its system platelet aggregation (rabbit prp) from collagen. As to the kind of experiment: platelet aggregation (rabbit prp) from collagen. Particulars: Oryctolagus cuniculus. In kind it is cell-based.
The test system of series [5] is platelet aggregation (rabbit prp) from arachidonic acid. As to the kind of experiment: platelet aggregation (rabbit prp) from arachidonic acid. The class given is cell-based. Particulars: Oryctolagus cuniculus.
The nature of series [6]: acute toxicity in the mouse. Particulars: in vivo; for LD50: approximate value; for selectivity ratio: ratio os/i.p., read-out: LD50 os/i.p.
For series [7], the system named is isolated trachea of guinea pig. The series can be described thus: relaxation of isolated trachea of guinea pig precontracted with methacoline. Particulars: Cavia porcellus, read-out: IC50, relaxing the contraction of the isolated trachea of guinea pig precontracted with methacoline. The text has this: The compounds of the invention have been pharmacologically studied by means of in vitro and in vivo tests, suitable to evidence the anti-bronchospastic properties of the compounds. […] To this action a remarkable anti-bronchospastic action in the tests in vivo corresponded after administration by i.v. and inhalatory route.

Where [8] appears, read: ip, read-out: approximate value of LD50, i.p.
The mark [9] stands for this setting: po, os, read-out: approximate value of LD50, os.

Consider `CC[N+]1(C(C)C)[C@@H]2CC[C@H]1C[C@@H](OC(=O)C1CCCC=C1c1ccccc1)C2` (stereo partly drawn) [Example 14, Endo-3-(2-phenyl-2-cyclohexen-1-carbonyloxy)-8-sin-isopropyl-8-ethyl-8-azoniabicylo-[3.2.1.]-octane iodide], for which the “ED50, inhibition of bronchospasm induced by acetyl choline aerosol” value in series [1] (i.v., listed as 1st formula, 2nd R, R'=CH2CH3) was found to be 22 nmol/kg. Besides, the “inhibition % of PAF-acether induced bronchospasm” value in series [2] (0.3 μmol kg^-1) amounted to 0%; in series [2] (3 μmol kg^-1), 42 ± 14%. The IC50 in series [3] is 29.9 µM; in series [4] it was > 100 µM; in series [5], > 100 µM. The LD50 in series [6] (setting [8]) stood at 91 mg/kg; in series [6] (setting [9]), 300 mg/kg. Further, the selectivity ratio in series [6] (ip) was 3.3.

With `CC[N+]1(CC)[C@@H]2CC[C@H]1C[C@@H](OC(=O)C1CCCC=C1c1ccccc1)C2` (stereo partly drawn) [Example 21, Endo-3-(2-phenyl-2-cyclohexene-1-carbonyloxy)-8,8-di-ethyl-azoniabicyclo-[3.2.1.]-octane iodide], the IC50 in series [7] was 0.03 nM; in series [3], 2.4 µM; in series [4] it was > 100 µM; in series [5] it was > 100 µM. Moreover, the ED50 turned out to be 0.029 µmol/kg in series [1] (Cavia porcellus, iv) and 0.8 µmol/kg in series [2] (Cavia porcellus, anestetized guinea pig). In addition, the “inhibition % of PAF-acether induced bronchospasm” value in series [2] (0.3 μmol kg^-1) is given as 43 ± 16%; in series [2] (3 μmol kg^-1) it was 64 ± 16%. The LD50 in series [6] (setting [8]) was 107 mg/kg; in series [6] (setting [9]), 800 mg/kg. Also, the selectivity ratio in series [6] (ip) amounted to 7.5.
